Assay results as given in patent US20240287172A1, “PROTEIN BINDERS TO IRHOM2 EPITOPES” (SCIRHOM GMBH, priority 2019, published 2024).

How the values were obtained:
[1] = test system: PMA-induced release of endogenous IL-6R from PBMCs from healthy donors; experiment: ELISA-based IL-6R release assay, PMA-induced, PBMCs from healthy donors; format: cell-based; conditions: Homo sapiens, PBMC; PMA 25 ng/ml, 6 hours; recombinant murine antibodies and IgG at 1 μg/ml; Batimastat at 10 μM
Procedure: (§1) In brief, on day 1, Nunc black MaxiSorp® 96-well plates (Thermo Fisher Scientific, USA) were coated overnight with 100 μl per well of mouse anti-human IL-6R capture antibody (provided as part of the DuoSet ELISA kit) at 4 μg/ml TBS at 4° C. On day 2, the capture antibody solution was removed and MaxiSorp® plates were blocked with 300 μl per well of TBS, 1% BSA at room temperature for 3 hours. Meanwhile, 40,000 PBMC from healthy donors (STEMCELL Technologies, Canada) cells in 80 μl of normal growth medium were seeded in each well of Greiner CELLSTAR V-bottom 96-well plates (Thermo Fisher Scientific, USA) and pre-incubated with 20 μl per well of standard growth medium supplemented with Batimastat (BB94, Abcam, UK) at 50 μM as positive control (for a final concentration of 10 μM in the resulting 100 μl sample volume), mouse IgG antibody (Thermo Fisher Scientific, USA) at 5 μg/ml as isotype control (for a final concentration of 1 μg/ml in the resulting 100 μl sample volume) or antibodies of the invention at 5 μg/ml (for a final concentration of 1 μg/ml in the resulting 100 μl sample volume) at 37° C., 5% CO2 for 30 minutes. […] Using an infinite M1000 (Tecan Group, Switzerland) microplate reader, the fluorescence of each well was collected at an excitation wavelength of 435 nm and an emission wavelength of 555 nm.

[2] = test system: LPS-induced release of endogenous TNFα from PBMCs from patients suffering from rheumatoid arthritis; experiment: ELISA-based TNFα release assay, LPS-induced, PBMCs from RA-patients; format: cell-based; conditions: PBMC; LPS 1 ng/ml, 1.5 hours; chimeric antibodies (CHO) and human IgG at 1 μg/ml; Batimastat at 10 μM
Procedure: as §1, with “anti-human TNFα” for “anti-human IL-6R”, “Meanwhile, 20,000” for “Meanwhile, 40,000”, “from patients suffering from rheumatoid arthritis” for “from healthy donors”, “volume), human” for “volume), mouse”

## CNC(=O)[C@H](Cc1ccccc1)NC(=O)[C@H](CC(C)C)[C@H](CSc1cccs1)C(=O)NO [Batimastat]
[1]
  inhibition at 10 µM: 114%
[2]
  inhibition at 10 µM: 99.9%
